Test results as given in patent publication US12409172B2, “Dosage regimen” (UNION therapeutics A/S, priority 2023, dated 2025).
Marks after values point to notes of the source that are not given here.

Tested on: cytokines in psoriatic lesional skin
Assay: Skin tape strip biomarkers (Olink Target 96 Inflammation panel) in the phase 2b psoriasis study (Example 10)
Type: in vivo, human
Conditions: for log2FCH W16_L - BL_L, CCL3 / log2FCH W16_L - BL_L, CCL4 / log2FCH W16_L - BL_L, CCL20 / log2FCH W16_L - BL_L, CSF1 / log2FCH W16_L - BL_L, CXCL1 / log2FCH W16_L - BL_L, CXCL5 / log2FCH W16_L - BL_L, CXCL6 / log2FCH W16_L - BL_L, CXCL9 / log2FCH W16_L - BL_L, CXCL10 / log2FCH W16_L - BL_L, IFNγ / log2FCH W16_L - BL_L, IL8 / log2FCH W16_L - BL_L, IL12B / log2FCH W16_L - BL_L, IL17A / log2FCH W16_L - BL_L, IL18 / log2FCH W16_L - BL_L, IL18R1 / log2FCH W16_L - BL_L, IL. 17C / log2FCH W16_L - BL_L, MMP1 / log2FCH W16_L - BL_L, TNFRSF9 / log2FCH W16_L - BL_L, TNFSF14 / log2FCH W16_L - BL_L, TNFα / log2FCH W16_L - BL_L, TRAIL: Week 16 lesional vs baseline lesional skin
Text: Skin tape strip samples were taken from lesional and non-lesional skin at baseline and lesional skin at week 16 of patients participating in the phase 2b, dose-ranging study assessing oral modified release orismilast in adults with moderate-to-severe plaque psoriasis (NCT05190419) described in Example 3. Approximately twenty consecutive stratum corneum samples were collected from the same skin site by tape stripping (D-squames; Monaderm DS100) of both lesional and non-lesional skin at baseline and lesional skin at week 16. To extract the proteins from the tapes the first ten tapes were pooled together and used for subsequent protein extraction by incubation in 800 μL of PBS containing 0.2% Triton X-100 together with a mixture of protease inhibitors and incubated overnight at 4° C. under stirring at 1400 rpm in a thermo mixer (Eppendorf). The insoluble material was removed by filtration on 0.22 μm filters by centrifugation. The protein extracts were analyzed using the Olink® technology (Target 96 Inflammation panel). Protein extracts from patients treated with placebo, 20 mg orismilast BID, and 30 mg orismilast BID as described in Example 3 were analyzed.
OLINK data was analyzed in R 2023.09.0+463 using a linear mixed effect model (OlinkAnalyse and Ime4) to estimate log 2 fold changes between Week 16 lesional skin versus baseline lesional skin and baseline lesional versus baseline non-lesional skin levels. P-values were corrected for multiple testing using the Benjamini-Hochberg method. The data was further modeled according to a weight-based dosing regimen in which data of the 20 mg Orismilast BID arm was used for patients with a bodyweight at baseline of <100 kg and combined with using data of the 30 mg Orismilast BID arm for patients ≥100 kg, respectively (named “P3DR”).

[1] = P3DR (20 mg <100 kg and 30 mg >=100 kg combined)

O=C(Cc1c(Cl)c[n+]([O-])cc1Cl)c1ccc(OC(F)F)c2c1OC1(CCS(=O)(=O)CC1)O2 [orismilast, 2-(3,5-dichloro-1-oxidopyridin-1-ium-4-yl)-1-[7-(difluoromethoxy)-1′,1′-dioxospiro[1,3-benzodioxole-2,4′-thiane]-4-yl]ethanone]
log2FCH W16_L - BL_L, CCL3 (20 mg BID): −2.68 *** | log2FCH W16_L - BL_L, CCL4 (20 mg BID): −2.46 *** | log2FCH W16_L - BL_L, CCL20 (20 mg BID): −2.53 *** | log2FCH W16_L - BL_L, CSF1 (20 mg BID): −1.35 ** | log2FCH W16_L - BL_L, CXCL1 (20 mg BID): −1.83 * | log2FCH W16_L - BL_L, CXCL5 (20 mg BID): −1.67 ** | log2FCH W16_L - BL_L, CXCL6 (20 mg BID): −2.34 *** | log2FCH W16_L - BL_L, CXCL9 (20 mg BID): −2.40 *** | log2FCH W16_L - BL_L, CXCL10 (20 mg BID): −2.20 *** | log2FCH W16_L - BL_L, IFNγ (20 mg BID): −1.21 * | log2FCH W16_L - BL_L, IL8 (20 mg BID): −1.82 * | log2FCH W16_L - BL_L, IL12B (20 mg BID): −2.21 ** | log2FCH W16_L - BL_L, IL17A (20 mg BID): −2.19 *** | log2FCH W16_L - BL_L, IL18 (20 mg BID): −2.10 ** | log2FCH W16_L - BL_L, IL18R1 (20 mg BID): −1.25 ** | log2FCH W16_L - BL_L, IL. 17C (20 mg BID): −2.49 *** | log2FCH W16_L - BL_L, MMP1 (20 mg BID): −2.41 ** | log2FCH W16_L - BL_L, TNFRSF9 (20 mg BID): −1.45 *** | log2FCH W16_L - BL_L, TNFSF14 (20 mg BID): −1.38 * | log2FCH W16_L - BL_L, TNFα (20 mg BID): −1.92 *** | log2FCH W16_L - BL_L, TRAIL (20 mg BID): −1.40 ** | log2FCH W16_L - BL_L, CCL3 (30 mg BID): −3.42 *** | log2FCH W16_L - BL_L, CCL4 (30 mg BID): −2.83 *** | log2FCH W16_L - BL_L, CCL20 (30 mg BID): −3.36 *** | log2FCH W16_L - BL_L, CSF1 (30 mg BID): −1.97 *** | log2FCH W16_L - BL_L, CXCL1 (30 mg BID): −2.84 *** | log2FCH W16_L - BL_L, CXCL5 (30 mg BID): −2.26 *** | log2FCH W16_L - BL_L, CXCL6 (30 mg BID): −3.15 *** | log2FCH W16_L - BL_L, CXCL9 (30 mg BID): −3.32 *** | log2FCH W16_L - BL_L, CXCL10 (30 mg BID): −2.89 *** | log2FCH W16_L - BL_L, IFNγ (30 mg BID): −2.02 *** | log2FCH W16_L - BL_L, IL8 (30 mg BID): −2.76 *** | log2FCH W16_L - BL_L, IL12B (30 mg BID): −3.38 *** | log2FCH W16_L - BL_L, IL17A (30 mg BID): −2.66 *** | log2FCH W16_L - BL_L, IL18 (30 mg BID): −3.46 *** | log2FCH W16_L - BL_L, IL18R1 (30 mg BID): −1.99 *** | log2FCH W16_L - BL_L, IL. 17C (30 mg BID): −3.39 *** | log2FCH W16_L - BL_L, MMP1 (30 mg BID): −3.30 *** | log2FCH W16_L - BL_L, TNFRSF9 (30 mg BID): −2.03 *** | log2FCH W16_L - BL_L, TNFSF14 (30 mg BID): −2.23 *** | log2FCH W16_L - BL_L, TNFα (30 mg BID): −2.48 *** | log2FCH W16_L - BL_L, TRAIL (30 mg BID): −2.04 *** | log2FCH W16_L - BL_L, CCL3 [1]: −3.60 *** | log2FCH W16_L - BL_L, CCL4 [1]: −3.14 *** | log2FCH W16_L - BL_L, CCL20 [1]: −3.22 *** | log2FCH W16_L - BL_L, CSF1 [1]: −1.86 *** | log2FCH W16_L - BL_L, CXCL1 [1]: −2.34 *** | log2FCH W16_L - BL_L, CXCL5 [1]: −2.25 *** | log2FCH W16_L - BL_L, CXCL6 [1]: −3.02 *** | log2FCH W16_L - BL_L, CXCL9 [1]: −3.24 *** | log2FCH W16_L - BL_L, CXCL10 [1]: −2.94 *** | log2FCH W16_L - BL_L, IFNγ [1]: −1.91 *** | log2FCH W16_L - BL_L, IL8 [1]: −2.42 *** | log2FCH W16_L - BL_L, IL12B [1]: −3.09 *** | log2FCH W16_L - BL_L, IL17A [1]: −2.66 *** | log2FCH W16_L - BL_L, IL18 [1]: −2.96 *** | log2FCH W16_L - BL_L, IL18R1 [1]: −1.83 *** | log2FCH W16_L - BL_L, IL. 17C [1]: −3.20 *** | log2FCH W16_L - BL_L, MMP1 [1]: −3.31 *** | log2FCH W16_L - BL_L, TNFRSF9 [1]: −1.98 *** | log2FCH W16_L - BL_L, TNFSF14 [1]: −2.08 *** | log2FCH W16_L - BL_L, TNFα [1]: −2.50 *** | log2FCH W16_L - BL_L, TRAIL [1]: −1.91 *** | expression of key disease driving cytokines in psoriatic lesions (oral orismilast for 16 weeks, 20 mg BID and 30 mg BID): significantly reduced
